Consider three compounds from patent publication US20160115189A1, “PARASITICIDAL COMPOUNDS, METHODS, AND FORMULATIONS” (ELI LILLY AND COMPANY, priority 2013, published 2016).

This assay has as its system adult brown tick (Rhipicephalus sanguineus). Briefly: Assay 5: adult brown tick infestations on dogs. It counts as in vivo, Rhipicephalus sanguineus on beagle dogs. Conditions: 10 mg/kg topical spot-on. The method, then:
The total number of live parasites present on each dog is determined for each interval, and this number is transformed using the natural logarithm transformation plus one (Ln count+1); addition of one to each count served to adjust for counts that are zero. Geometric mean (GM) group tick and flea counts are obtained via back-transformation of group mean transformed counts and subtracting one. The negative control group is used for comparison to treated groups for the calculation of percent efficacy (% reduction in live parasite counts). GM percent efficacy of treatments is calculated using the following formula: […]
The therapeutic (knockdown) and residual efficacy of the Example 1-4 compounds, when administered via topical spot-on at 10 mg/kg, is evaluated against adult brown tick (Rhipicephalus sanguine us) infestations on dogs. Twenty (20) beagle dogs are allocated to either an untreated, negative control group or one of four treated groups (n=4 dogs per group). Dogs are infested with approximately 50 unfed, adult R. sanguineus ticks on Days −1, 5, 12, 19 and 28. On Day 0, dogs are treated with Example 1-4 compound formulations (each, 50 mg/ml of technical active dissolved in a vehicle solution of propylene carbonate, benzyl alcohol, and isopropyl myristate), applied via topical spot-on in a volume so as to achieve a point dose of 10 mg/kg. Tick counts and classification are conducted on Days 2, 7, 14, 21 and 30. GM percent efficacy of treatments against ticks is calculated using the formula in Assay 3.

In the case of `CC[C@H]1CCC[C@H](NC(=O)c2ccncc2)[C@@H](C)C(=O)C2=C[C@@H]3[C@@H](C=C[C@@H]4C[C@@H](O[C@@H]5O[C@@H](C)[C@H](OC)C(OC)[C@H]5OC)C[C@@H]34)[C@@H]2CC(=O)O1` (stereo partly drawn) [Example 3, N-((2R,3aS,5aR,5bS, 9S,13S,14R,16aS, 16bR)-9-ethyl-14-methyl-7,15-dioxo-2-(((2R,3R,5S,6S)-3,4,5-trimethoxy-6-methyltetrahydro-2H-pyran-2-yl)oxy)-2,3,3a,5a,5b,6,7,9,10,11,12,13,14, 15,16a,16b-hexadecahydro-1H-as-indaceno[3,2-d][1]oxacyclododecin-13-yl)isonicolina-mide], the GM percent efficacy entry reads like this: (Day 2, R. sanguineus) “(62.52)”; (Day 7, R. sanguineus) “(85.01)”; (Day 14, R. sanguineus) “(76.50)”; (Day 21, R. sanguineus) “(82.44)”; (Day 30, R. sanguineus) “(41.02)”. Moreover, the “Geometric Mean Group Live Tick Counts” value (Day 2, R. sanguineus) is 11.80; the “Geometric Mean Group Live Tick Counts” value (Day 7, R. sanguineus) turned out to be 3.23; the “Geometric Mean Group Live Tick Counts” value (Day 14, R. sanguineus) is recorded as 5.12; the “Geometric Mean Group Live Tick Counts” value (Day 21, R. sanguineus) turned out to be 5.90; the “Geometric Mean Group Live Tick Counts” value (Day 30, R. sanguineus) amounted to 15.47.
With `CC[C@H]1CCC[C@H](NC(=O)c2cc(C)on2)[C@@H](C)C(=O)C2=C[C@@H]3[C@@H](C=C[C@@H]4C[C@@H](O[C@@H]5O[C@@H](C)[C@H](OC)C(OC)[C@H]5OC)C[C@@H]34)[C@@H]2CC(=O)O1` (stereo partly drawn) [Example 4, N-((2R,3aS,5aR,5bS, 9S,13S,14R,16aS, 16bR)-9-ethyl-14-methyl-7,15-dioxo-2-(((2R,3R,5S,6S)-3,4,5-trimethoxy-6-methyltetrahydro-2H-pyran-2-yl)oxy)-2,3,3a,5a,5b,6,7,9, 10,11,12,13,14,15, 16a,16b-hexadecahydro-1H-as-indaceno[3,2-d][1]oxacyclododecin-13-yl)-5-methyl-isoxazole-3-carboxamide], the GM percent efficacy entry (Day 2, R. sanguineus) is reported as “(67.71)”; the GM percent efficacy entry (Day 7, R. sanguineus) is reported as “(96.60)”; the GM percent efficacy entry (Day 14, R. sanguineus) is given as “(82.25)”; the GM percent efficacy entry (Day 21, R. sanguineus) is given as “(81.13)”; the GM percent efficacy entry (Day 30, R. sanguineus) is given as “(26.88)”. Moreover, the “Geometric Mean Group Live Tick Counts” value is given as 10.17 (Day 2, R. sanguineus); 0.73 (Day 7, R. sanguineus); 3.86 (Day 14, R. sanguineus); 6.34 (Day 21, R. sanguineus); 19.17 (Day 30, R. sanguineus).
With `CC[C@H]1CCC[C@H](NC(=O)c2ccncn2)[C@@H](C)C(=O)C2=C[C@@H]3[C@@H](C=C[C@@H]4C[C@@H](O[C@@H]5O[C@@H](C)[C@H](OC)C(OC)[C@H]5OC)C[C@@H]34)[C@@H]2CC(=O)O1` (stereo partly drawn) [Example 2, N-((2R,3aS,5aR,5bS,9S,14R,16aS,16bR)-9-ethyl-14-methyl-7,15-dioxo-2-(((2R,3R,5S,6S)-3,4,5-trimethoxy-6-methyltetrahydro-2H-pyran-2-yl)oxy)-2,3,3a,5a,5 b,6,7,9,10,11,12,13,14,15,16a,16b-hexadecahydro-1H-as-indaceno[3,2-d][1]oxacyclododecin-13-yl)pyrimidine-4-carboxamide], the GM percent efficacy result was “(53.80)” (Day 2, R. sanguineus); “(99.12)” (Day 7, R. sanguineus); “(73.29)” (Day 14, R. sanguineus); “(76.46)” (Day 21, R. sanguineus); “(33.99)” (Day 30, R. sanguineus). Further, the “Geometric Mean Group Live Tick Counts” value runs as follows: (Day 2, R. sanguineus) 14.55; (Day 7, R. sanguineus) 0.19; (Day 14, R. sanguineus) 5.82; (Day 21, R. sanguineus) 7.91; (Day 30, R. sanguineus) 17.31.
